Measurements as given in article PMC12051620, “Molecular basis underlying the specificity of an antagonist AA92593 for mammalian melanopsins” (The Journal of Biological Chemistry, 2025).

System: lanceolatum melanopsin WT
Assay: GsX GloSensor assay with Gsα/q11
Format: cell-based, Branchiostoma lanceolatum
Conditions: 16.7 μM AA92593, COS-1 cells
Excerpt: Non-mammalian-type melanopsins were successfully converted into AA92593-susceptible types by introducing Phe-94^2.61/Ser-188^ECL2/Ser-269^6.52 or Phe-207^5.42 (Fig. 6). We attempted to extend the functional conversion targets to invertebrate melanopsin (see Fig. S2). […] We assessed the susceptibility of belcheri and lanceolatum melanopsins to AA92593 using the GsX GloSensor assay with Gsα/q11. In the absence of AA92593, the belcheri melanopsin produced smaller light-dependent cAMP responses than the other melanopsins assessed in this study (Fig. 7A), whereas the lanceolatum melanopsin produced robust cAMP responses upon light illumination (Fig. 7B). […] On the other hand, responses by the lanceolatum melanopsin were insensitive to the antagonist (Fig. 7B), similar to non-mammalian-type melanopsins (Fig. 6, A and D). […]
For GloSensor assay, opsins, GloSensor assay sensor (coded by pGlo-22F), and NanoBiT-tagged G proteins were transiently expressed in COS-1 cells (kindly provided from Dr David Farrens, Oregon Health and Science University) using PEI as described previously ([24], [52]). […] For GFP-fluorescence microscopy, a 35-mm cell culture dish (IWAKI) was transfected with 2 μg melanopsin-GFP plasmid and 8 μg PEI in 400 μl Opti-mem and 1.2 ml D-MEM. […]

With `COc1ccc(S(=O)(=O)N2CCCCC2)cc1C` [AA92593] the “sensitivity of light-induced responses to the antagonist” value was “insensitive”.
